In ChEMBL document CHEMBL4152341, “Small Molecules Simultaneously Inhibiting p53-Murine Double Minute 2 (MDM2) Interaction and Histone Deacetylases (HDACs): Discovery of Novel Multitargeting Antitumor Agents” (J Med Chem, 2018):
The source made the active and inactive calls. The rule behind the calls is not given here.

Assays:
HCT-116 = assay: Antiproliferative activity against human HCT116 cells after 72 hrs by CCK8 assay; type: functional, cell-based; conditions: HCT-116, 72 h
Histone deacetylase 1 = Histone deacetylase 1 (Homo sapiens, UniProt Q13547); assay: Inhibition of human recombinant full length HDAC1 using fluorogenic substrate 3 after 30 mins by fluorescence assay
[1] = target: E3 ubiquitin-protein ligase Mdm2 (Homo sapiens, UniProt Q00987); assay: Inhibition of MDM2 (unknown origin) preincubated for 30 mins by fluorescence polarization assay
A549 = assay: Antiproliferative activity against human A549 cells after 72 hrs by CCK8 assay; type: functional, cell-based; conditions: A549, 72 h
NCI-H1299 = assay: Antiproliferative activity against human NCI-H1299 cells after 72 hrs by CCK8 assay; type: functional, cell-based; conditions: NCI-H1299, 72 h
MCF7 = assay: cells; conditions: Homo sapiens, MCF7, 72 h
Description: Antiproliferative activity against human MCF7 cells after 72 hrs by CCK8 assay

[2] = target: T1, Tumour suppressor p53/oncoprotein Mdm2 (Homo sapiens) (UniProt P04637+Q00987); assay: Inhibition of MDM2/P53 interaction in human A549 cells assessed as increase in p53 expression at 5 to 10 uM after 12 hrs by Western blot analysis; type: cell-based
[3] = target: T1, Tumour suppressor p53/oncoprotein Mdm2 (Homo sapiens); assay: Inhibition of MDM2/P53 interaction in human A549 cells assessed as increase in MDM2 expression at 5 to 10 uM after 12 hrs by Western blot analysis; type: cell-based

Sequence of E3 ubiquitin-protein ligase Mdm2 (Q00987 whole entry): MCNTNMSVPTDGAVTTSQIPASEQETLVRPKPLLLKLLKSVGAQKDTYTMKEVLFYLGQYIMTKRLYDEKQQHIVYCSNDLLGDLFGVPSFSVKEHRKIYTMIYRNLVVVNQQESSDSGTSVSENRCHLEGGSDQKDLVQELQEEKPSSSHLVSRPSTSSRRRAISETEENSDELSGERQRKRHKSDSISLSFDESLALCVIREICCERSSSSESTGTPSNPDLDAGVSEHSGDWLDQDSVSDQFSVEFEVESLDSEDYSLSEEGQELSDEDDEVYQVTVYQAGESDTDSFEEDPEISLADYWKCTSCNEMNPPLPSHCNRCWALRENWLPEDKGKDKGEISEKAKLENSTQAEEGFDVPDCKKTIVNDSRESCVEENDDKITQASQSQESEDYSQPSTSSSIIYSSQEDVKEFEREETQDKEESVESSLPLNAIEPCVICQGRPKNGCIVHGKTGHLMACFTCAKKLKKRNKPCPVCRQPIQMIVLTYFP
Sequence of Histone deacetylase 1 (Q13547 whole entry): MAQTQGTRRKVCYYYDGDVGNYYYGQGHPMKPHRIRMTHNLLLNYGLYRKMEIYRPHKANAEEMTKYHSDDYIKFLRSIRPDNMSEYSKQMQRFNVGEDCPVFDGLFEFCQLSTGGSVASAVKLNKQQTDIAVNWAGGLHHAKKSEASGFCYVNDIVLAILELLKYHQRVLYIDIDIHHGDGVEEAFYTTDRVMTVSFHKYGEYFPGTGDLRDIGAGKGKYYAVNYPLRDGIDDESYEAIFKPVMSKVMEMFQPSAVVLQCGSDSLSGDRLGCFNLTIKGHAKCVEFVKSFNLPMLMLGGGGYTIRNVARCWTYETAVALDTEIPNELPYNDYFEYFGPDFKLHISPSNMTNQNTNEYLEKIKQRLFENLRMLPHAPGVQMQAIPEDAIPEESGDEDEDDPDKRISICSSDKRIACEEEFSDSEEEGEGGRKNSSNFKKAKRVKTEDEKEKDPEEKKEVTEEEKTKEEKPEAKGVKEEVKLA
T1 sequence (P04637 whole entry, looked up): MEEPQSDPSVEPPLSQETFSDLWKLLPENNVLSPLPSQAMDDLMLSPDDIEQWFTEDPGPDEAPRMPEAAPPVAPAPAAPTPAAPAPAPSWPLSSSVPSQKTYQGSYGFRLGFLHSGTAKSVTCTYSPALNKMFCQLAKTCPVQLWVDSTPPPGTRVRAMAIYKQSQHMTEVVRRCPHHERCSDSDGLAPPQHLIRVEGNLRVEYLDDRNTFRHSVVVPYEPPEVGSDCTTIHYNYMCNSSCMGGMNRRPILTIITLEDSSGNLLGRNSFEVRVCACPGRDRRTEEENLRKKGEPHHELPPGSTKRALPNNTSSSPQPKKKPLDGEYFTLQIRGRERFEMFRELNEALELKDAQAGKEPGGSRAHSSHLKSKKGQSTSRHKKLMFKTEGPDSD
T1 sequence (Q00987 whole entry, looked up): as the sequence (Q00987 whole entry) above

SMILES | IC50 (HCT-116) | IC50 (Histone deacetylase 1) | Ki [1] | IC50 (A549) | IC50 (NCI-H1299) | IC50 (MCF7) | inhibition [2] | inhibition [3]
CCOc1cc(C(C)(C)C)ccc1C1=NC(c2ccc(Cl)cc2)C(c2ccc(Cl)cc2)N1C(=O)N1CCN(CC(=O)NO)CC1 (stereo not given) | 5.88 µM | 4.2 µM | 0.07 µM | 4.32 µM | 11.5 µM | 11.7 µM |  | 
CC(=O)Nc1ccc(C(=O)Nc2ccccc2N)cc1 [TACEDINALINE] | 9.83 µM |  |  | 10.2 µM | 6.79 µM | 13.2 µM |  | 
CCOc1cc(C(C)(C)C)ccc1C1=NC(c2ccc(Cl)cc2)C(c2ccc(Cl)cc2)N1C(=O)NCc1ccc(C(=O)NO)cc1 (stereo not given) | 9.1 µM | 3.7 µM | 0.58 µM | 7.64 µM | 7.71 µM | 13.3 µM |  | 
CCOc1cc(C(C)(C)C)ccc1C1=NC(c2ccc(Cl)cc2)C(c2ccc(Cl)cc2)N1C(=O)NCCCCCC(=O)Nc1ccccc1N (stereo not given) | 21.8 µM | > 20 µM | 1.43 µM | 20.3 µM | 19.1 µM | > 100 µM |  | 
CCOc1cc(C(C)(C)C)ccc1C1=NC(c2ccc(Cl)cc2)C(c2ccc(Cl)cc2)N1C(=O)N1CCC(C(=O)Nc2ccc(/C=C/C(=O)NO)cc2)CC1 (stereo not given) | 9.64 µM | 0.97 µM | 2.65 µM | 7.59 µM | 9.36 µM | 7.22 µM |  | 
CCOc1cc(C(C)(C)C)ccc1C1=N[C@@H](c2ccc(Cl)cc2)[C@@H](c2ccc(Cl)cc2)N1C(=O)N1CCN(CCCCCCC(=O)NO)CC1 | 1.11 µM | 0.89 µM | 0.06 µM | 0.99 µM |  |  | Active | Active
CCOc1cc(C(C)(C)C)ccc1C1=NC(c2ccc(Cl)cc2)C(c2ccc(Cl)cc2)N1C(=O)N1CCC(C(=O)NO)CC1 (stereo not given) | 9.3 µM | 9.72 µM | 0.057 µM | 2.99 µM | 9.87 µM | 10.1 µM |  | 
CCOc1cc(C(C)(C)C)ccc1C1=NC(c2ccc(Cl)cc2)C(c2ccc(Cl)cc2)N1C(=O)N1CCC(Nc2ncc(C(=O)NO)cn2)CC1 (stereo not given) | 3.24 µM | 1.01 µM | 0.46 µM | 3.11 µM | 7.91 µM | 2.68 µM |  | 
CCOc1cc(C(C)(C)C)ccc1C1=NC(c2ccc(Cl)cc2)C(c2ccc(Cl)cc2)N1C(=O)N1CCN(CCCCCC(=O)NO)CC1 (stereo not given) | 4.03 µM | 0.97 µM | 0.17 µM | 2.91 µM | 9.39 µM | 7.26 µM |  | 
O=C(CCCCCCC(=O)Nc1ccccc1)NO [VORINOSTAT] |  |  | > 20 µM |  | 4.92 µM |  |  | 
CCOc1cc(C(C)(C)C)ccc1C1=NC(c2ccc(Cl)cc2)C(c2ccc(Cl)cc2)N1C(=O)NCCCCC(=O)Nc1ccccc1N (stereo not given) | 13.9 µM | > 20 µM | 0.96 µM | 18.4 µM | 15.6 µM | 29.1 µM |  | 
